Experiments:
human CB1 receptor [1] = biological target: T1, human CB1 receptor (Homo sapiens, UniProt P21554); assay: biochemical; type: binding; set-up: membranes prepared in house; details: for Selectivity CB1: fold difference in binding between CB1 and CB2, shown in the column of the receptor with higher affinity, 1.00 in both = about same affinity
human CB2 receptor = biological target: T2, human CB2 receptor (Homo sapiens, UniProt P34972); assay: CB2 radioligand competitive binding assay ([3H]CP 55,940 displacement); details: for IC50: [3H]CP 55,940 displacement, CHO-K1 membranes expressing human CB2 receptor; for Selectivity CB2: fold difference in binding between CB1 and CB2, shown in the column of the receptor with higher affinity, 1.00 in both = about same affinity
T2 construct: membranes prepared in house
Protocol: Compounds of the present disclosure were tested for CB1 receptor binding affinity and for CB2 receptor binding affinity. As used herein, “binding affinity” is represented by the IC50 value, which was experimentally determined as described herein. The lower the IC50 value the higher the binding affinity. A compound of the present disclosure may be said to have “binding selectivity” If it has a higher binding affinity for one receptor compared to the other.
The membranes were prepared from CHO-K1 (Chinese hamster ovary) cells stably transfected with the human CB2 receptor (Cat. #ES-111-C; Perkin Elmer, Boston, MA). The cells were grown adherently and maintained in Ham's F12 medium containing 10% fetal bovine serum (FBS), penicillin, streptomycin and geneticin (G418) at 37° C. in a humid atmosphere of 5% CO2 following the manufacturer's Instructions.
For membrane preparation the cells were washed with PBS and scraped off the plates in cold homogenization buffer (25 mM HEPES (pH 7.4), 2 mM EDTA) containing protease inhibitor cocktail (Sigma Cat. #P8340). The cell suspension was homogenized with a Pro-PK-01200D Polytron Homogenizer (Pro Scientific) and then centrifuged for 30 min at 120,000×g. The supernatant was discarded and the pellet was re-suspended in the homogenization buffer and stored at −80° C. until the time of use.
In this experiment, 3H radiolabeled CP 55,940, i.e. [3H]CP 55,940 (Perkin Elmer, Boston, MA), was used as a radioligand for the CB2 receptor to determine the binding affinity of compounds for the CB2 receptor (Scheme 8; above).
The competition binding experiments (single dose and dose-response) were performed by incubating 0.6 nM of [3H]CP55,940 (specific activity 101 Ci/mmol, Perkin Elmer) and different concentrations of compounds disclosed herein with membranes prepared as above from CHO-K1 cells expressing human CB2 receptor (1 μg of protein/well), 50 mM Tris-HCl (pH 7.4), 5 mM MgCl2, 1 mM CaCl2, and 2 mg/mL BSA.
For the single dose experiments, the compound stocks (usually 10 mM in DMSO) were diluted to working stocks in the binding buffer to give the final compound concentrations of 10 μM and 1 μM. For the dose-response experiments the test compounds were sequentially diluted to provide the desired concentration range for the IC50 determination. In each case the compounds were pre-incubated with the membrane for 20 min, before adding the radioligand.
After incubation with the radioligand for 60 min at 37° C., the incubation was terminated by rapid filtration of assay mixture through MultiScreen®HTS^+ 96-well filter plates (Millipore, Cat. #MSFCNXB), pre-soaked for 60 min with 50 mM Tris-HCl (pH 7.4) containing 0.33% polyethylenimine (PEI). The nonspecific binding (NSB) was determined in the presence of 10 μM unlabeled CP55,940. After drying the filter plate at 50° C. for at least 60 min, the filter-bound radioactivity was determined by scintillation spectrometry using the 1450 MicroBeta Plate Counter (Perkin Elmer, Boston, MA). From the dose-response experiments, the IC50 values were determined (see Table 1, CB2 IC50).

human CB1 receptor [2] = biological target: T1, human CB1 receptor; assay: PathHunter β-Arrestin functional assay, CB1 receptor, antagonist mode; type: cell-based; set-up: membranes prepared in house; details: for inhibition at 4 µM: read-out: relative inhibition in comparison to rimonabant

T2 sequence (P34972 whole entry): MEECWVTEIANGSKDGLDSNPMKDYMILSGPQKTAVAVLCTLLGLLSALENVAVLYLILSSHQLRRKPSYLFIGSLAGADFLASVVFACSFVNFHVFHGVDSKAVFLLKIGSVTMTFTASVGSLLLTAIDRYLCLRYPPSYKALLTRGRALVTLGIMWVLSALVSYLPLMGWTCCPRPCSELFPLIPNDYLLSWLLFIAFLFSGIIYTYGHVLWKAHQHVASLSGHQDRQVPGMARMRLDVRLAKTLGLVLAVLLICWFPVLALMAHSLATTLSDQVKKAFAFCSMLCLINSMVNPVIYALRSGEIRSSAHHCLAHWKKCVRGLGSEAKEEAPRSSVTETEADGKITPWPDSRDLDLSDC
T1 sequence (P21554 whole entry): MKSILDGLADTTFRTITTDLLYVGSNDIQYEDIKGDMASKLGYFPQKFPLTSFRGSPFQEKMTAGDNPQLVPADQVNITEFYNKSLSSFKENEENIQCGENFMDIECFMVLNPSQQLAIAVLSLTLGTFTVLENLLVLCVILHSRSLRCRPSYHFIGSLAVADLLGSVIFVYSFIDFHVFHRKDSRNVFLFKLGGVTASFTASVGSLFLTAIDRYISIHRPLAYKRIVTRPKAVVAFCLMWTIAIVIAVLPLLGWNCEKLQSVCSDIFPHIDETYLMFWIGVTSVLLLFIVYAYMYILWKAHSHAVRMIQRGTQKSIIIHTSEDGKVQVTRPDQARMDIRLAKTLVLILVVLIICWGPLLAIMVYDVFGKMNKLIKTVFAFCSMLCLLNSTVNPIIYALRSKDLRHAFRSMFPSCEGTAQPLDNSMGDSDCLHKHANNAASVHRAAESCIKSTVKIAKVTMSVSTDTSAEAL

Row | SMILES | IC50 (human CB1 receptor [1]) | IC50 (human CB2 receptor) | Selectivity CB2 (human CB2 receptor) | Selectivity CB1 (human CB1 receptor [1]) | IC50 (human CB1 receptor [2]) | inhibition at 4 µM (human CB1 receptor [2])
1 | C=C(C)[C@@H]1CCC(C)=C[C@H]1c1c(O)cc(CCCCC)c(S(=O)(=O)N(C)C)c1O (stereo in doubt) [Compound 21d, 2,6-dihydroxy-N,N,5′-trimethyl-4-pentyl-2′-(prop-1-en-2-yl)-1′,2′,3′,4′-tetrahydro-[1,1′-biphenyl]-3-sulfonamide] | 0.1 to 0.99 µM | 0.1 to 0.99 µM | 1.41 fold |  |  | 
2 | C=C(C)[C@@H]1CCC(C)=C[C@H]1c1c(O)cc(CCCCC)c(S(=O)(=O)NC(C)C)c1O (stereo in doubt) [Compound 23d, 2,6-dihydroxy-N-isopropyl-5′-methyl-4-pentyl-2′-(prop-1-en-2-yl)-1′,2′,3′,4′-tetrahydro-[1,1′-biphenyl]-3-sulfonamide] | 1 to 5 µM | 0.1 to 0.99 µM | 2.56 fold |  |  | 
3 | C=C(C)[C@@H]1CCC(C)=C[C@H]1c1c(O)cc(CCCCC)c(S(C)(=O)=O)c1O [Compound 3d, 5′-methyl-3-(methylsulfonyl)-4-pentyl-2′-(prop-1-en-2-yl)-1′,2′,3′,4′-tetrahydro-[1,1′-biphenyl]-2,6-diol] | 1 to 5 µM | 1 to 5 µM | 2.00 fold |  |  | 
4 | CCCCCc1cc(O)c(C2C=C(C)CCC2)c(O)c1S(N)(=O)=O (stereo not shown) [Compound 19c, 2,6-dihydroxy-5′-methyl-4-pentyl-1′,2′,3′,4′-tetrahydro-[1,1′-biphenyl]-3-sulfonamide] | 1 to 5 µM | 1 to 5 µM | 1.00 fold | 1.00 fold |  | 
5 | CCCCCc1cc(O)c(C2C=C(C)CCC2)c(O)c1S(=O)(=O)NC1CC1 (stereo not shown) [Compound 22c, N-cyclopropyl-2,6-dihydroxy-5′-methyl-4-pentyl-1′,2′,3′,4′-tetrahydro-[1,1′-biphenyl]-3-sulfonamide] | 1 to 5 µM | 0.1 to 0.99 µM | 11.59 fold |  | 0.775 to 3 µM | 11 to 79%
6 | C=C(C)[C@@H]1CCC(C)=C[C@H]1c1c(O)cc(CCCCC)c(S(=O)(=O)NC2CC2)c1O [Compound 22d, N-Cyclopropyl-2,6-Dihydroxy-5′-Methyl-4-Pentyl-2′-(Prop-1-En-2-Yl)-1′,2′,3′,4′-Tetrahydro-[1,1′-Biphenyl]-3-Sulfonamide] | 1 to 5 µM | 1 to 5 µM | 1.52 fold |  | 0.775 to 3 µM | 11 to 79%
7 | CCCCCc1cc(O)c(C2C=C(C)CCC2)c(O)c1S(=O)(=O)Nc1ccccc1 (stereo not shown) [Compound 24c, 2,6-dihydroxy-5′-methyl-4-pentyl-N-phenyl-1′,2′,3′,4′-tetrahydro-[1,1′-biphenyl]-3-sulfonamide] | 1 to 5 µM | 0.1 to 0.99 µM | 3.60 fold |  |  | 
8 | C=C(C)[C@@H]1CCC(C)=C[C@H]1c1c(O)cc(CCCCC)c(S(=O)(=O)Nc2ccccc2)c1O [Compound 24d, 2,6-dihydroxy-5′-methyl-4-pentyl-N-phenyl-2′-(prop-1-en-2-yl)-1′,2′,3′,4′-tetrahydro-[1,1′-biphenyl]-3-sulfonamide] | 1 to 5 µM | 1 to 5 µM | 1.67 fold |  |  | 
9 | CCCCCc1cc(O)c(C2C=C(C)CCC2)c(O)c1S(=O)(=O)NCc1ccccc1 (stereo not shown) [Compound 25c, N-benzyl-2,6-dihydroxy-5′-methyl-4-pentyl-1′,2′,3′,4′-tetrahydro-[1,1′-biphenyl]-3-sulfonamide] | 0.1 to 0.99 µM | 0.1 to 0.99 µM | 1.50 fold |  |  | 
10 | C=C(C)[C@@H]1CCC(C)=C[C@H]1c1c(O)cc(CCCCC)c(S(=O)(=O)NCc2ccccc2)c1O [Compound 25d, N-benzyl-2,6-dihydroxy-5′-methyl-4-pentyl-2′-(prop-1-en-2-yl)-1′,2′,3′,4′-tetrahydro-[1,1′-biphenyl]-3-sulfonamide] | 1 to 5 µM | 1 to 5 µM | 2.00 fold |  |  | 
11 | CCCCCc1cc(O)c(C2C=C(C)CCC2)c(O)c1S(=O)(=O)N1CCOCC1 (stereo not shown) [Compound 28c, 5′-methyl-3-(morpholinosulfonyl)-4-pentyl-1′,2′,3′,4′-tetrahydro-[1,1′-biphenyl]-2,6-diol] |  | 0.1 to 0.99 µM |  |  | 0.775 to 3 µM | 11 to 79%
12 | C=C(C)[C@@H]1CCC(C)=C[C@H]1c1c(O)cc(CCCCC)c(S(=O)(=O)N2CCOCC2)c1O [Compound 28d, 5′-Methyl-3-(Morpholinosulfonyl)-4-Pentyl-2′-(Prop-1-En-2-Yl)-1′,2′,3′,4′-Tetrahydro-[1,1′-Biphenyl]-2,6-Diol] | 0.1 to 0.99 µM | < 0.1 µM | 8.20 fold |  |  | 
13 | C=C(C)[C@@H]1CCC(C)=C[C@H]1c1c(O)cc(CCCCC)c(S(=O)(=O)N(CC)CC)c1O [Compound 62d, N,N-Diethyl-2,6-Dihydroxy-5′-Methyl-4-Pentyl-2′-(Prop-1-En-2-Yl)-1′,2′,3′,4′-Tetrahydro-[1,1′-Biphenyl]-3-Sulfonamide] | 0.1 to 0.99 µM | 0.1 to 0.99 µM | 6.29 fold |  | 0.775 to 3 µM | 11 to 79%
14 | C=C(C)[C@@H]1CCC(C)=C[C@H]1c1c(O)cc(CCCCC)c(S(=O)(=O)N(CCO)CCBr)c1O [Compound 63d, N-(2-bromoethyl)-2,6-dihydroxy-N-(2-hydroxyethyl)-5′-methyl-4-pentyl-2′-(prop-1-en-2-yl)-1′,2′,3′,4′-tetrahydro-[1,1′-biphenyl]-3-sulfonamide] | 1 to 5 µM | 1 to 5 µM | 1.00 fold | 1.00 fold |  | 
15 | C=C(C)[C@@H]1CCC(C)=C[C@H]1c1c(O)cc(CCCCC)c(S(=O)(=O)OCC(F)(F)F)c1O [Compound 64d, 2,2,2-trifluoroethyl-2,6-dihydroxy-5′-methyl-4-pentyl-2′-(prop-1-en-2-yl)-1′,2′,3′,4′-tetrahydro-[1,1′-biphenyl]-3-sulfonate] | 0.1 to 0.99 µM | 0.1 to 0.99 µM |  | 2.00 fold |  | 
16 | C=C(C)[C@@H]1CCC(C)=C[C@H]1c1c(O)cc(CCC)c(S(=O)(=O)N(C)C)c1O [Compound 67d, 2,6-dihydroxy-N,N,5′-trimethyl-2′-(prop-1-en-2-yl)-4-propyl-1′,2′,3′,4′-tetrahydro-[1,1′-biphenyl]-3-sulfonamide] | 1 to 5 µM | 1 to 5 µM | 3.08 fold |  |  | 
17 | C=C(C)[C@@H]1CCC(C)=C[C@H]1c1c(O)cc(CCC)c(S(=O)(=O)NC(C)C)c1O [Compound 68d, 2,6-dihydroxy-N-isopropyl-5′-methyl-2′-(prop-1-en-2-yl)-4-propyl-1′,2′,3′,4′-tetrahydro-[1,1′-biphenyl]-3-sulfonamide] | 1 to 5 µM | 1 to 5 µM | 1.74 fold |  |  | 
18 | CCCCCc1cc(O)c(C2C=C(C)CCC2)c(O)c1C(=O)NS(=O)(=O)c1cccnc1 (stereo not shown) [Compound 71c, 2,6-dihydroxy-5′-methyl-4-pentyl-N-(pyridin-3-ylsulfonyl)-1′,2′,3′,4′-tetrahydro-[1,1′-biphenyl]-3-carboxamide] | 0.1 to 0.99 µM | 0.1 to 0.99 µM |  | 1.14 fold | 0.775 to 3 µM | 11 to 79%
